Reference: ChEMBL document CHEMBL3085632, “Subcellular localization of proflavine derivative and induction of oxidative stress--in vitro studies” (Bioorg Med Chem, 2013)
The source made the active and inactive calls. The calls are words filed in the database; no cut-off is given here.

Experiments:
L1210 [1] = assay: Cytotoxicity against mouse L1210 cells assessed as intracellular ATP level at 5 to 10 uM after 6 hrs by luminometric assay in presence of vitamin E; type: functional, cell-based
L1210 [2] = assay: Cytotoxicity against mouse L1210 cells assessed as cell viability at 5 to 20 uM after 24 hrs by MTT assay in presence of vitamin E; type: functional, cell-based
L1210 [3] = assay: Cytotoxicity against mouse L1210 cells assessed as decrease in intracellular ATP level at 10 uM after 6 hrs by luminometric assay; type: functional; set-up: scale not given: the % may be the effect or the level left
L1210 [4] = assay: Cell cycle arrest in mouse L1210 cells assessed as accumulation at sub-G0 phase at 10 uM after 5 hrs by propidium iodide staining-based flow cytometric analysis relative to control; type: functional
[5] = Selectivity ratio of IC50 for mouse NIH/3T3 cells to IC50 for mouse L1210 cells; type: ADME, cell-based; conditions: NIH/3T3 cells versus L1210 cells, read-out: Ratio IC50
[6] = Drug uptake in mitochondria of mouse L1210 cells at 4 uM after 0.5 to 24 hrs by MitoRed staining-based flow cytometric analysis; type: ADME; conditions: l1210, 4 µM
L1210 [7] = assay: Induction of apoptosis in mouse L1210 cells assessed as nucleosomal DNA fragmentation at 10 to 15 uM after 4 hrs by agarose gel electrophoresis; type: functional, cell-based
NIH3T3 = assay: Cytotoxicity against mouse NIH/3T3 cells assessed as cell viability after 72 hrs by MTT assay; type: cell-based; conditions: NIH3T3, 72 h
[8] = Selectivity ratio of IC50 for mouse NIH/3T3 cells to IC50 for human HL60 cells; type: ADME, cell-based, HL-60; conditions: NIH/3T3 cells versus HL60 cells, read-out: Ratio IC50
L1210 [9] = assay: Induction of apoptosis in mouse L1210 cells assessed as DNA ladder formation at 10 to 15 uM after 8 hrs by agarose gel electrophoresis; type: functional, cell-based
L1210 [10] = assay: Induction of intracellular ROS production in mouse L1210 cells at 5 uM after 6 hrs by Dihydroethidium staining-based fluorescence assay in absence of vitamin E relative to control; type: functional
L1210 [11] = assay: Cytotoxicity against mouse L1210 cells assessed as cell viability at 50 uM after 24 hrs by MTT assay in presence of vitamin E; type: functional; conditions: L1210, 24 h, read-out: Activity
L1210 [12] = assay: Cell cycle arrest in mouse L1210 cells assessed as accumulation at S-phase at 10 uM after 5 hrs by propidium iodide staining-based flow cytometric analysis relative to control; type: functional
[13] = Drug uptake in nucleus of mouse L1210 cells by Hoechst-33342 staining-based fluorescence microscopic analysis; type: ADME, cell-based
[14] = Drug uptake in lysosomes of mouse L1210 cells at 4 uM after 30 mins by MDC staining-based flow cytometric analysis; type: ADME, cell-based, Lysosome; conditions: l1210, 0.5 h
L1210 [15] = assay: Induction of intracellular ROS production in mouse L1210 cells at 5 uM after 6 hrs by Dihydroethidium staining-based fluorescence assay in presence of vitamin E relative to control; type: functional, cell-based
[16] = Drug uptake in nucleus of mouse L1210 cells at 5 uM after 1 hr by propidium iodide staining-based confocal microscopic analysis; type: ADME, cell-based; conditions: l1210, 1 h

Drug uptake [6]: Active
Drug uptake [13]: Not Active
Drug uptake [14]: Not Active
Drug uptake [16]: Not Active
Compound: CCCCCCN1C(=O)CN/C1=N\c1ccc2cc3ccc(/N=C4\NCC(=O)N4CCCCCC)cc3nc2c1.Cl
Activity (L1210 [1]): inactive
Activity (L1210 [2]): Active
Activity (L1210 [3]): 50%
Activity (L1210 [4]): 17.7%
selectivity ratio [5]: 4
Activity (L1210 [7]): inactive
IC50 (NIH3T3): 18.6 µM
selectivity ratio [8]: 4
Activity (L1210 [9]): Active
fold change (FC) (L1210 [10]): 4
viability at 50 µM (L1210 [11]): 80%
Activity (L1210 [12]): Active
Activity (L1210 [15]): inactive
